Results as given in patent US10669284B2, “Fused thiazolopyrimidine derivatives as MNKS inhibitors” (LIFEARC, priority 2015, dated 2020).

Columns and labels:
ABL2 = ABL2 (Homo sapiens, UniProt P42684); assay: Kinase selectivity screen ABL2; conditions: read-out: % inhibition of ABL2
MTOR = MTOR (Homo sapiens, UniProt P42345); assay: Kinase selectivity screen MTOR; conditions: read-out: % inhibition of MTOR
PTK6 = PTK6 (Homo sapiens, UniProt Q13882); assay: Kinase selectivity screen PTK6; conditions: read-out: % inhibition of PTK6
PTK6, sequence (Q13882 whole entry, species assumed): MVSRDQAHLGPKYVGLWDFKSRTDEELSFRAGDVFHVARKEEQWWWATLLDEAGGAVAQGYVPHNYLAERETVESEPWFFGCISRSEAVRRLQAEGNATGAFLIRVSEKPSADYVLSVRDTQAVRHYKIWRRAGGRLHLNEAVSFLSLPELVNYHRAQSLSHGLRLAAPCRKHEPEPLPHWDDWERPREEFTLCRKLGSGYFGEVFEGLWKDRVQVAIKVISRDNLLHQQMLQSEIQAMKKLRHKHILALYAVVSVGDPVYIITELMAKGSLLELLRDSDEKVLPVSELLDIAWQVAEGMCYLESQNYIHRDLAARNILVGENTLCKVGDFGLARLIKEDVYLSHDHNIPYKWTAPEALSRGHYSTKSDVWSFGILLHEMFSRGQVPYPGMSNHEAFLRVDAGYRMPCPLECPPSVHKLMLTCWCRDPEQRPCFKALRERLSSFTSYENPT

PRAK = target: T1, PRAK (Homo sapiens, UniProt Q8IW41); assay: Kinase selectivity screen PRAK; conditions: read-out: % inhibition of PRAK
T1 sequence (Q8IW41 1-473): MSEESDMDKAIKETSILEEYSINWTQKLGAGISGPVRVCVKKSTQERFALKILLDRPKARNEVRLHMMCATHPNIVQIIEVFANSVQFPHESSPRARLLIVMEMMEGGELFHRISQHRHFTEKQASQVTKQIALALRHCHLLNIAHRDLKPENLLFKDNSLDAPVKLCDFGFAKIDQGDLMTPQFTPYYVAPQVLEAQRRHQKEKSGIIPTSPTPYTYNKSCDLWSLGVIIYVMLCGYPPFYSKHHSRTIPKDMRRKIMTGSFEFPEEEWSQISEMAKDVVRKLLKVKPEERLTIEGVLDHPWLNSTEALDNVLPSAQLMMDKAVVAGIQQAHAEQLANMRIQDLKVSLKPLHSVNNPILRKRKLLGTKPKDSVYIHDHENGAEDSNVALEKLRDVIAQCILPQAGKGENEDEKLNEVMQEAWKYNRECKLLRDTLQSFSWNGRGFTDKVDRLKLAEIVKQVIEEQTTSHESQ

CDK9/CCNT1 = CDK9/CCNT1 (Homo sapiens, UniProt P50750); assay: Kinase selectivity screen CDK9/CCNT1; conditions: read-out: % inhibition of CDK9/CCNT1
CDK9/CCNT1, sequence (P50750 whole entry, species assumed): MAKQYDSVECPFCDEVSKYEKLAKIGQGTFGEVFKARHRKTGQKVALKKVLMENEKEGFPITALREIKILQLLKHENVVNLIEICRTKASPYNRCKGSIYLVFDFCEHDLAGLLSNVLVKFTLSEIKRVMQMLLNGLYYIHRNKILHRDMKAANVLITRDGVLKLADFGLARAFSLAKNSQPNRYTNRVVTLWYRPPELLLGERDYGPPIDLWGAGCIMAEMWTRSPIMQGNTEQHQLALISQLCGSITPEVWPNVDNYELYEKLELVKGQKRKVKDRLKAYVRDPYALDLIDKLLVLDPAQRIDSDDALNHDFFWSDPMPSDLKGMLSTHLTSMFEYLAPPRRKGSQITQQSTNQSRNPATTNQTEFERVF
CDK9/CCNT1, sequence (O60563 whole entry partner, species assumed): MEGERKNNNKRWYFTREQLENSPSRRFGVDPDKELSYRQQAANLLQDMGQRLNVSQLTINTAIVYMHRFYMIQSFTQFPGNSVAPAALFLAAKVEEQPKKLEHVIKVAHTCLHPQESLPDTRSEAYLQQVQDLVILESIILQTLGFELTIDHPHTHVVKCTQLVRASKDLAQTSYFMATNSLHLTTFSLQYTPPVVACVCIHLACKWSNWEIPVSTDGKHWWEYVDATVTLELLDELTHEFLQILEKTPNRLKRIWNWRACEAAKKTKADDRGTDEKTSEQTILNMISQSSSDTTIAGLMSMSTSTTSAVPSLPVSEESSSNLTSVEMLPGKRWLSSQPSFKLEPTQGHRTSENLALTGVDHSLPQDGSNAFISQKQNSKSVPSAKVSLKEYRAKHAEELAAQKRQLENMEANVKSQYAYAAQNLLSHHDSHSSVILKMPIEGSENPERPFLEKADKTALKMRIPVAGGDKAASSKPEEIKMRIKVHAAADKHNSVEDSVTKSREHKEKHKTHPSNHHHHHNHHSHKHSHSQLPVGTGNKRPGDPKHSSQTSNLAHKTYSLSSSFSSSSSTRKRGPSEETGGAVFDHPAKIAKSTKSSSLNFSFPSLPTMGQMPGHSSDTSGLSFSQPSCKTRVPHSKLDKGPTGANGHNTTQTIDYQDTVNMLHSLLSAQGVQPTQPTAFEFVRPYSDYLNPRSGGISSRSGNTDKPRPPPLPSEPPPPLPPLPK

ULK2 = target: T2, ULK2 (Homo sapiens, UniProt Q8IYT8); assay: Kinase selectivity screen ULK2; conditions: read-out: % inhibition of ULK2
T2 sequence (Q8IYT8 1-1036): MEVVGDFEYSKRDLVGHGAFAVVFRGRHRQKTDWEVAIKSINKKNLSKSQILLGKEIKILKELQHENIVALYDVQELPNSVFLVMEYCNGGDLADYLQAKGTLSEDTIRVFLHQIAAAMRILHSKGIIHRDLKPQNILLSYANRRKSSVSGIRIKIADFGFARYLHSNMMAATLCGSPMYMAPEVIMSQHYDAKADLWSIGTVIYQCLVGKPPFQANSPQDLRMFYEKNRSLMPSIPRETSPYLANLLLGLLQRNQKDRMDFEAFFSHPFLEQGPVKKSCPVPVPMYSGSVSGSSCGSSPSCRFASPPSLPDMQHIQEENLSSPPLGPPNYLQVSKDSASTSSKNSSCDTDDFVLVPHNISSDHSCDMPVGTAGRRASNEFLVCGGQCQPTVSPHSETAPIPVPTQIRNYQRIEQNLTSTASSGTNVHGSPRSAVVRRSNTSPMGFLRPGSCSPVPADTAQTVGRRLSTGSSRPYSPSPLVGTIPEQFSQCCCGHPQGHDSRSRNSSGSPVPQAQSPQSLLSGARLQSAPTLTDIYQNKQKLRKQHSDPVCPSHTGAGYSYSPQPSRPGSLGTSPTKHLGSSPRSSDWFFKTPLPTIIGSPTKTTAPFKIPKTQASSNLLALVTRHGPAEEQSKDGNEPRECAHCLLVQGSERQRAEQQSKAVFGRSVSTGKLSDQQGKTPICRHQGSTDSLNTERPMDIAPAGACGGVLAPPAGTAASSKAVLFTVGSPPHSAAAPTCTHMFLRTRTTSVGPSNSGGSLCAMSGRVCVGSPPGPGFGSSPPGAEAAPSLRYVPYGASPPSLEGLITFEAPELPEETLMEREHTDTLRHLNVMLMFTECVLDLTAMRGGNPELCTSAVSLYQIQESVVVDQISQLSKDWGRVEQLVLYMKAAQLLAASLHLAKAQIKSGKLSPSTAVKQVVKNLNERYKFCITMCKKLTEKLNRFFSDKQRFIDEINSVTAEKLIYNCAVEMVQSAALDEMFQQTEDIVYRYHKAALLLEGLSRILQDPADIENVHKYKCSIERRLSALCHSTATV

MYLK = MYLK (Homo sapiens, UniProt Q15746); assay: Kinase selectivity screen MYLK; conditions: read-out: % inhibition of MYLK
MYLK, sequence (Q15746 1425-1771): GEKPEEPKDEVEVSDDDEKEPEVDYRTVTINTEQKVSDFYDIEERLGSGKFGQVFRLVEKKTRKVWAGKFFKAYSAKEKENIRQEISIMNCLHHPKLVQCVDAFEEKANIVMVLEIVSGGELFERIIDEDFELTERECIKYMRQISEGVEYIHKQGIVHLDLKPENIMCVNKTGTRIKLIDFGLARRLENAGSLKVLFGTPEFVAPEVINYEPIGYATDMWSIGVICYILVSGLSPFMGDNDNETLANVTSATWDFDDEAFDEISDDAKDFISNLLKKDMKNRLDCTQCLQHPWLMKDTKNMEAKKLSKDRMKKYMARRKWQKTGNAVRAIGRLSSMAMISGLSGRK

FGFR1 = FGFR1 (Homo sapiens, UniProt P11362); assay: Kinase selectivity screen FGFR1; conditions: read-out: % inhibition of FGFR1
FGFR1, sequence (P11362 22-822, species assumed): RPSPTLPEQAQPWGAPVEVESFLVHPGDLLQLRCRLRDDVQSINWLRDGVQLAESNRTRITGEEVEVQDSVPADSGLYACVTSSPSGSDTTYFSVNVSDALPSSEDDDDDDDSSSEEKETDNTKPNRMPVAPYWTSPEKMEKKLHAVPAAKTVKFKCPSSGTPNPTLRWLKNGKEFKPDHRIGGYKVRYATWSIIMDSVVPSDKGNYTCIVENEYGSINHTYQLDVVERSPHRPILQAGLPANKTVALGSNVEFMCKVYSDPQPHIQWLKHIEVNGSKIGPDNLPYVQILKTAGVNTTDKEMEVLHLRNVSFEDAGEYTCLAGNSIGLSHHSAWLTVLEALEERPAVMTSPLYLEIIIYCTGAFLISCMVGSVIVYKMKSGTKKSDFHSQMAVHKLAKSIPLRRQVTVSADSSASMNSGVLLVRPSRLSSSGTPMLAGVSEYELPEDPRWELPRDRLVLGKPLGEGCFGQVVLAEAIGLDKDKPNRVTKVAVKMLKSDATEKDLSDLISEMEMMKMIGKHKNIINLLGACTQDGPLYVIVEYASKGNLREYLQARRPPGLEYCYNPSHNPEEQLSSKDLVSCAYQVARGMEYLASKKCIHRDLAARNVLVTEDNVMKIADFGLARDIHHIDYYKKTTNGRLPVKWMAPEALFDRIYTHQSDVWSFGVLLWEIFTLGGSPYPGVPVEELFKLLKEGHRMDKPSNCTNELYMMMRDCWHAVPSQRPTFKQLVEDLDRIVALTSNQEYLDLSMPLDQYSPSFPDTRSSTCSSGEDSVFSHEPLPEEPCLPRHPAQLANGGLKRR

EEF2K = EEF2K (Homo sapiens, UniProt O00418); assay: Kinase selectivity screen EEF2K; conditions: read-out: % inhibition of EEF2K
EEF2K, sequence (O00418 whole entry): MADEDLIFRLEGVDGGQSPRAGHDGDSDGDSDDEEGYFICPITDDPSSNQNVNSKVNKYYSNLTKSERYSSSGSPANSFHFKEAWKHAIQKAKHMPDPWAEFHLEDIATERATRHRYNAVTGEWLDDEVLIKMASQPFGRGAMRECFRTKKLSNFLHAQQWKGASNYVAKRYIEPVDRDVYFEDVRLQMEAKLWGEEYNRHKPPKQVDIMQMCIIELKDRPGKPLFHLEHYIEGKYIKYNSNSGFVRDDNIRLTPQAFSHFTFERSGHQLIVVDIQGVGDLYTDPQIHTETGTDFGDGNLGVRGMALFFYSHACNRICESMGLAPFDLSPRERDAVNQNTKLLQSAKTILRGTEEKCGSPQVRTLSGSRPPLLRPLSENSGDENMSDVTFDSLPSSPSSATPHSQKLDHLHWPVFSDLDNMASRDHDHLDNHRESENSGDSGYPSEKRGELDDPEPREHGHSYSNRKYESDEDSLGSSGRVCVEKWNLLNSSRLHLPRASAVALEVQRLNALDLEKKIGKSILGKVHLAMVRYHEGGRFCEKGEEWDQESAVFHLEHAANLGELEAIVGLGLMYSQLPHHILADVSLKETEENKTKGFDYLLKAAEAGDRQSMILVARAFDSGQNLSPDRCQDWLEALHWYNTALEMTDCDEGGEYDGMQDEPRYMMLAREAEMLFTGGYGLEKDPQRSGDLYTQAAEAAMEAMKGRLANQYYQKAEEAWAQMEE

ABL2, sequence (P42684 whole entry, species assumed): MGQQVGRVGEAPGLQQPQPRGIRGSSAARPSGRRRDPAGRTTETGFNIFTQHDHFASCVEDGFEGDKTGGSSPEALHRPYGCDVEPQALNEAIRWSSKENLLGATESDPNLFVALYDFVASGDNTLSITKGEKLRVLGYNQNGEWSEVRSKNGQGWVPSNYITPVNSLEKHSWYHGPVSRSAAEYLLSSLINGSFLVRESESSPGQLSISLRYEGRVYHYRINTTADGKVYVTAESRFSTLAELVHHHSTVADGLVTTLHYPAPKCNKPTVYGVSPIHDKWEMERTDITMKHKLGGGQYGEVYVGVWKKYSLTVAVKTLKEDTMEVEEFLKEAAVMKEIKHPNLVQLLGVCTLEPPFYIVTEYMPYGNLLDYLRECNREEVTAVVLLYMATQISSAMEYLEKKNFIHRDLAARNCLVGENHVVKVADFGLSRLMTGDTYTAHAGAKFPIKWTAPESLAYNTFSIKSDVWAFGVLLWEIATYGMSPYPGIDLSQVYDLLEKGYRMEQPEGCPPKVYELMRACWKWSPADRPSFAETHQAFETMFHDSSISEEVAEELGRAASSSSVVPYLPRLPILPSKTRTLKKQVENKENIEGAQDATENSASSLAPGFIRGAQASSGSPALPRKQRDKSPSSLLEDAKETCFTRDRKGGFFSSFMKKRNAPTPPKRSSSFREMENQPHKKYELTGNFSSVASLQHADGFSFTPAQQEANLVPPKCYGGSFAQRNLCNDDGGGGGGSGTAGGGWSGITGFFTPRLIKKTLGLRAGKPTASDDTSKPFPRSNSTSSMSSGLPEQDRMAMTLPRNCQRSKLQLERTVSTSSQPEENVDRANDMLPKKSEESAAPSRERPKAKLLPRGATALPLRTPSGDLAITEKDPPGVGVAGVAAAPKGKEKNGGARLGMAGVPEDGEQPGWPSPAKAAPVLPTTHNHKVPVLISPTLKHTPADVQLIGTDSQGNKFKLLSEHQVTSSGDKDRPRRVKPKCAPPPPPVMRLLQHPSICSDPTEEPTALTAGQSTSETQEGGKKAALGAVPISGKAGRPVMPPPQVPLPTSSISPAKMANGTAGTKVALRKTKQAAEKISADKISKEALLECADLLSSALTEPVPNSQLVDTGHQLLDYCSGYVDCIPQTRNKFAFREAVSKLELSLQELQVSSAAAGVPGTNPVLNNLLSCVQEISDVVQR

SMILES | inhibition at 1 µM (ABL2) | inhibition at 1 µM (MTOR) | inhibition at 1 µM (PTK6) | inhibition at 1 µM (PRAK) | inhibition at 1 µM (CDK9/CCNT1) | inhibition at 1 µM (ULK2) | inhibition at 1 µM (MYLK) | inhibition at 1 µM (FGFR1) | inhibition at 1 µM (EEF2K)
CC(C)Oc1cc(F)ccc1Nc1ncnc2sc(C(=O)NCC3CCNCC3)nc12 [Example 10, 7-(4-fluoro-2-isopropoxy-anilino)-N-(4-piperidylmethyl)thiazolo[5,4-d]pyrimidine-2-carboxamide] | 0% | 4% | 0% | 0% | 2% | 0% | 10% | 1% | 4%
CN(C)CCCNC(=O)c1nc2c(N3CCc4cc(F)ccc43)ncnc2s1 [Example 64, N-[3-(dimethylamino)propyl]-7-(5-fluoroindolin-1-yl)thiazolo[5,4-d]pyrimidine-2-carboxamide] | 0% | 3% | 4% | 0% | 4% | 81% | 15% | 2% | 0%
O=C(NCC1CCNCC1)c1nc2c(N3CCc4cc(F)ccc43)ncnc2s1 [Example 58, 7-(5-fluoroindolin-1-yl)-N-(4-piperidylmethyl)thiazolo[5,4-d]pyrimidine-2-carboxamide] | 0% | 0% | 0% | 0% | 11% | 21% | 15% | 0% | 0%
